Data taken from US8846653B2, “Delta-tocotrienol treatment and prevention of pancreatic cancer” (University of South Florida, priority 2006, dated 2014).

Assays:
Format in all cases: cell-based, human
[1] = test system: SW1990 cells; test: Annexin V-FITC staining, flow cytometry for apoptosis; settings: SW1990, varying concentrations, 24 hours
Protocol: FIG. 5 is a graph wherein SW1990 pancreatic cancer cells were treated with in varying concentrations of δ-tocotrienol or vehicle for 24 hours. Cells were collected and stained with Annexin V-FITC and analyzed by flow cytometry for apoptosis.
(§1) MiaPaCa2 and HPDE 6C7 cells were cultured, as discussed above, and treated with δ-tocotrienol or vehicle. […] MiaPaCa-2, BxPc-3, and SW1990 pancreatic cancer cells were treated with in varying concentrations of δ-tocotrienol or vehicle for 24 hours. The cells were then harvested for annexin V-FITC staining and analyzed by flow cytometry.

[2] = test system: p27^kip1 luciferase reporter; test: p27^kip1 luciferase reporter assay; settings: Mia PaCa2, 20 μM, 24 hours
Protocol: The mechanism by which δ-tocotrienol upregulates p27^kip1 protein expression was investigated using a luciferase reporter assay. Mia PaCa2 cells transfected with a p27^kip1 luciferase reporter (Wang, et al. Activation of p27Kip1 Expression by E2F1. A negative feedback mechanism. J Biol. Chem. 2005 Apr. 1; 280(13):12339-43. Epub 2005 Feb. 14) were treated with either δ-tocotrienol (20 μM) or vehicle for 24 hours and luciferase activity was then measured using a luminometer.

[3] = test system: MIA PaCa-2 cells; test: Trypan blue cell death, δ-tocotrienol, 5-FU or combination, 24 hours; settings: MIA PaCa-2, 50 μM each
Protocol: MIA PaCa-2 cells were treated vehicle or an anti-proliferative treatment comprising 50 μM δ-tocotrienol, 50 μM 5-FU, or 50 μM δ-tocotrienol and 50 μM 5-FU for 24 hours. Cells were harvested, fixed, permeablized and stained with trypan blue.

[4] = test system: BXPC3 cells; test: Cell cycle phase by propidium iodide flow cytometry; settings: BXPC3, 20 μM, 24 hours
Protocol: (§2) MIA PaCa2, SW 1990, BXPC3 and HPDE 6C7 cells were treated with either 8-tocotrienol 20 μM or vehicle for 24 hours. Cells were harvested, washed twice in PBS, and fixed in ethanol overnight. Pellets were washed the following day in PBS, stained with propidium iodide, and analyzed by flow cytometry for cell cycle phase. […] Important regulators of the G1 cell cycle phase include members of the cyclin kinase inhibitor family. One of these members, p27^kip1, appears to be important in the progression of pancreatic cancer.

[5] = test system: SW 1990 cells; test: as above; settings: SW 1990, 20 μM, 24 hours
Protocol: as §2

[6] = test system: MIA PaCa2 cells; test: as above; settings: MIA PaCa2, 20 μM, 24 hours
Protocol: as §2

[7] = test system: HPDE 6C7 cells; test: as above; settings: HPDE 6C7, 20 μM, 24 hours
Protocol: as §2

[8] = test system: MIA PaCa2 cells; test: MTT cell viability, δ-tocotrienol, fluorouracil or combination
Protocol: FIG. 39 is a graph MIA PaCa2 pancreatic cancer cells (3×10^3) treated with indicated concentrations of delta-tocotrienol, fluorouracil (5FU), or a combination of the indicated delta-tocotrienol and 5FU.
The MiaPaCa 2 cells were plated as above into 96 well plates and treated the following day with increasing concentrations of δ-tocotrienol, fluorouracil (5FU), or a combination of δ-tocotrienol and fluorouracil. The cells were collected and analyzed for cell viability using an MTT assay. […] MIA PaCa2 cells (3×10^3) were cultured as described in the Examples above, in 96-well plates and treated the following day with vehicle, δ-tocotrienol, fluorouracil, or a combination of δ-tocotrienol and fluorouracil.

[9] = test system: p-cRaf, p-MEK, and p-ERK; test: Immunoblot of downstream phosphorylated targets of oncogenic Ras; settings: pancreatic cancer cell lines, 20 μM
Protocol: The Ras effector pathways Raf-MEK-ERK and PI3 kinase-AKT are important for cell proliferation and survival, respectively. Pancreatic cancer cell lines (MIA PaCa2, SW1990, BXPC3) and HPDE 6C7 cells were treated with 8-tocotrienol (20 μM) and cell lysates were collected and prepared at progressive time intervals as described above. Proteins from lysates were run by SDS PAGE and immunoblotted with the following antibodies: Ras, p-cRaf (ser 338), p-MEK1/2, MEK1/2, pERK 44/42, ERK 44/42 (Cell Signaling) and c-Raf (BD Transduction Laboratories). […] The MIA PaCa2 and SW1990 cells were then tested for AKT inhibition. The cells were treated with δ-tocotrienol (20 μM) for 24 and 48 hours and cell lysates were run by SDS-PAGE and immunoblotted for p-AKT and AKT (Cell Signaling). […] Taken together, the inhibition of downstream effectors of oncogenic Ras signaling by δ-tocotrienol without an effect on Ras protein levels may indicate a negative regulatory role of 8-tocotrienol on the function of oncogenic Ras. The pancreatic ductal epithelial cell proliferative inhibition by δ-tocotrienol was tested to see if it occurs through blocking aberrant signal transduction cascades. […]

[10] = test system: MiaPaCa-2 cells; test: Annexin V-FITC staining, flow cytometry for apoptosis; settings: MiaPaCa-2, varying concentrations, 24 hours
Protocol: FIG. 3 is a graph wherein MIA PaCa-2 pancreatic cancer cells were treated with in varying concentrations of δ-tocotrienol or vehicle for 24 hours. Cells were collected and stained with Annexin V-FITC and analyzed by flow cytometry for apoptosis.
as §1

[11] = test system: MIA PaCa2 cells; test: TUNEL staining; settings: MIA PaCa2, 20 μM, 24 hours, vs vehicle or treated HPDE 6C7
Protocol: In addition to its chemopreventive effects, δ-Tocotrienol induces apoptosis in pancreatic cancer. MIA PaCa2 cells were treated with either δ-tocotrienol or vehicle for 24 hours. Cells were collected and stained with annexin V-FITC and analyzed by flow cytometry for apoptosis. […] MIA PaCa2 cells and HPDE 6C7 cells were treated with vehicle or δ-tocotrienol (20 μM) for 24 hours, then harvested and stained for TUNEL. […] Cell lysates were prepared from MIA PaCa2 cells treated with 8-tocotrienol (20 μM) at progressive time intervals and proteins from lysates were run by SDS PAGE and immunoblotted for biomarkers of apoptosis.

Q: What does the source list for CC(C)=CCC/C(C)=C/CC/C(C)=C/CC[C@]1(C)CCc2cc(O)cc(C)c2O1 [T3 delta, delta tocotrienol]?
A: induction of apoptosis (annexin V-FITC) [1]: dose dependent induction of apoptosis; luciferase activity (p27^kip1 reporter) [2]: increase in luciferase activity; cell death (Trypan Blue) [3]: significantly more than 5-FU alone; cell cycle phase [4]: significant G1 cell cycle arrest; cell cycle phase [5]: significant G1 cell cycle arrest; cell cycle phase [6]: significant G1 cell cycle arrest; cell cycle phase [7]: no effect on cell cycle phase; concentration at which the effect became significant vs vehicle [8]: 50 µM; IC50 ([8]; at 24 hours): 50 µM; downstream phosphorylated targets of oncogenic Ras p-cRaf, p-MEK, p-ERK [9]: selectively inhibited; induction of apoptosis (annexin V-FITC) [10]: dose dependent induction of apoptosis; TUNEL staining [11]: significant staining for TUNEL
